The source of these data is ChEMBL document CHEMBL4382234, “Fluoroquinolone-isatin hybrids and their biological activities” (Eur J Med Chem, 2019).

Structures are written as SMILES. Values after ≈ are worked out from the molar mass of the structure shown.

Type in all cases: functional
Assay [1] deals with Mycobacterium tuberculosis. Description: Antimycobacterial activity against Mycobacterium tuberculosis H37Rv after 3 to 7 days by rapid direct susceptibility test.
Assay [2] relates to Mycobacterium tuberculosis. Description: Antimycobacterial activity against Mycobacterium tuberculosis H37Rv ATCC 27294 by rapid direct susceptibility test.
Assay [3] concerns Mycolicibacterium smegmatis. Description: Antimycobacterial activity against Mycobacterium smegmatis CMCC 93202 after 72 hrs by double dilution method. Particulars: CMCC 93202, 72 h.
Assay [4] concerns Mycobacterium tuberculosis. Description: Antitubercular activity against Mycobacterium tuberculosis H37Rv by microplate alamar blue assay. On the technique in general: The colour change of resazurin is a common sign of viable cells or microbes.

What is called MIC is the lowest concentration found to suppress growth. Higher therefore signals a need for much substance. `Cc1ccc2c(c1)/C(=N\O)C(=O)N2CCCN1CCN(c2cc3c(cc2F)c(=O)c(C(=O)O)cn3C2CC2)CC1`: the MIC in assay [1] is 0.1 to 64 µg/mL (≈ 0.183 to 117 µM).

Turning to `COc1c(N2C[C@@H]3CCCN(CN4C(=O)/C(=N\NC(N)=S)c5ccccc54)[C@@H]3C2)c(F)cc2c(=O)c(C(=O)O)cn(C3CC3)c12`, the minimal inhibitory concentration (MIC) in assay [2] and in assay [3] was 0.39 to 16 µg/mL (≈ 0.615 to 25.2 µM) throughout. In assay [4], `CCn1cc(C(=O)O)c(=O)c2cc(F)c(N3CCN(CN4C(=O)/C(=N\c5ncc(Cc6cc(OC)c(OC)c(OC)c6)c(N)n5)c5cc(Cl)ccc54)C(C)C3)c(F)c21` (centres undefined) returned a minimum inhibitory concentration (MIC) of 0.78 to 3.13 µg/mL (≈ 0.954 to 3.83 µM). As to `CCO/N=C1\C(=O)N(CCN2CCC[C@H]3CN(c4c(F)cc5c(=O)c(C(=O)O)cn(C6CC6)c5c4OC)C[C@H]32)c2ccccc21`, the MIC in assay [2] and in assay [3] was 0.39 to 16 µg/mL (≈ 0.631 to 25.9 µM) in each case.

On to `COc1c(N2C[C@@H]3CCCN(CCN4C(=O)/C(=N\O)c5cc(F)ccc54)[C@@H]3C2)c(F)cc2c(=O)c(C(=O)O)cn(C3CC3)c12`, for which the MIC in assay [2] and in assay [3] was 0.39 to 16 µg/mL (≈ 0.642 to 26.3 µM) in each case.

For the compound `COc1c(N2C[C@@H]3CCCN(CN4C(=O)/C(=N\NC(N)=O)c5ccccc54)[C@@H]3C2)c(F)cc2c(=O)c(C(=O)O)cn(C3CC3)c12`, the minimum inhibitory concentration (MIC) in assay [2] and in assay [3] was 0.39 to 16 µg/mL (≈ 0.631 to 25.9 µM) each time. As for `CCO/N=C1\C(=O)N(CN2CCC[C@H]3CN(c4c(F)cc5c(=O)c(C(=O)O)cn(C6CC6)c5c4OC)C[C@H]32)c2ccccc21`, the minimum inhibitory concentration (MIC) in assay [2] and in assay [3] was 0.39 to 16 µg/mL (≈ 0.646 to 26.5 µM) throughout.

In assay [4], `COc1cc(Cc2cnc(/N=C3\C(=O)N(CN4CCN(c5cc6c(cc5F)c(=O)c(C(=O)O)cn6C5CC5)CC4)c4ccc(Cl)cc43)nc2N)cc(OC)c1OC` had an MIC of 0.78 to 3.13 µg/mL (≈ 0.978 to 3.93 µM).

As to `CO/N=C1\C(=O)N(CCN2CCC[C@H]3CN(c4c(F)cc5c(=O)c(C(=O)O)cn(C6CC6)c5c4OC)C[C@H]32)c2ccccc21`, the MIC in assay [2] and in assay [3] was 0.39 to 16 µg/mL (≈ 0.646 to 26.5 µM) in each case. Take `CO/N=C1\C(=O)N(CCN2CCC[C@H]3CN(c4c(F)cc5c(=O)c(C(=O)O)cn(C6CC6)c5c4OC)C[C@H]32)c2cc(F)ccc21`: the minimum inhibitory concentration (MIC) in assay [2] and in assay [3] was 0.39 to 16 µg/mL (≈ 0.627 to 25.7 µM) each time. Regarding `COc1c(N2C[C@@H]3CCCN(CN4C(=O)/C(=N\NC(N)=O)c5cc(F)ccc54)[C@@H]3C2)c(F)cc2c(=O)c(C(=O)O)cn(C3CC3)c12`, the MIC in assay [2] and in assay [3] was 0.39 to 16 µg/mL (≈ 0.614 to 25.2 µM) each time.

In assay [4], `NC[C@H]1O[C@H](O[C@H]2[C@H](O)[C@@H](O[C@H]3O[C@H](CO)[C@@H](O)[C@H](N)[C@H]3O)[C@H](N)C[C@@H]2N)[C@H](O)[C@@H](O)[C@@H]1O` [KANAMYCIN] gave an MIC of 5 µg/mL (≈ 10.3 µM). As to `COc1c(N2C[C@@H]3CCCN(Cc4cn(CCN5C(=O)C(=O)c6cc(Br)ccc65)nn4)[C@@H]3C2)c(F)cc2c(=O)c(C(=O)O)cn(C3CC3)c12`, the minimal inhibitory concentration (MIC) in assay [1] lay within 0.1 to 0.78 µg/mL (≈ 0.136 to 1.06 µM). For `COc1c(N2C[C@@H]3CCCN(CCN4C(=O)C(=O)c5ccccc54)[C@@H]3C2)c(F)cc2c(=O)c(C(=O)O)cn(C3CC3)c12`, the MIC in assay [2] and in assay [3] was 0.39 to 16 µg/mL (≈ 0.679 to 27.8 µM) each time. On to `CCO/N=C1/C(=O)N(CCn2cc(CN3CCC[C@H]4CN(c5c(F)cc6c(=O)c(C(=O)O)cn(C7CC7)c6c5OC)C[C@H]43)nn2)c2ccc(Br)cc21`, for which the MIC in assay [1] is 0.1 to 0.78 µg/mL (≈ 0.129 to 1 µM). Take `COc1c(N2C[C@@H]3CCCN(CN4C(=O)/C(=N\O)c5ccccc54)[C@@H]3C2)c(F)cc2c(=O)c(C(=O)O)cn(C3CC3)c12`: the minimal inhibitory concentration (MIC) in assay [2] and in assay [3] was 0.39 to 16 µg/mL (≈ 0.678 to 27.8 µM) each time.

As for `CCO/N=C1\C(=O)N(CCN2CCC[C@H]3CN(c4c(F)cc5c(=O)c(C(=O)O)cn(C6CC6)c5c4OC)C[C@H]32)c2ccc(F)cc21`, the MIC in assay [2] and in assay [3] was 0.39 to 16 µg/mL (≈ 0.614 to 25.2 µM) each time.

As to `CCc1cc(C(N)=S)ccn1` [ETHIONAMIDE], the MIC in assay [4] was determined as 2.5 µg/mL (≈ 15 µM). As for `CO/N=C1\C(=O)N(CN2CCC[C@H]3CN(c4c(F)cc5c(=O)c(C(=O)O)cn(C6CC6)c5c4OC)C[C@H]32)c2ccc(F)cc21`, the MIC in assay [2] and in assay [3] was 0.39 to 16 µg/mL (≈ 0.642 to 26.3 µM) throughout. Take `COc1cc(Cc2cnc(/N=C3\C(=O)N(CN4CCN(c5c(F)cc6c(=O)c(C(=O)O)cn(C7CC7)c6c5OC)CC4C)c4ccc(C)cc43)nc2N)cc(OC)c1OC` (centres undefined): the MIC in assay [4] was 0.78 to 3.13 µg/mL (≈ 0.95 to 3.81 µM). On to `COc1c(N2C[C@@H]3CCCN(Cc4cn(CCN5C(=O)/C(=N/O)c6ccccc65)nn4)[C@@H]3C2)c(F)cc2c(=O)c(C(=O)O)cn(C3CC3)c12`, for which, in assay [1], the MIC is 0.1 to 0.78 µg/mL (≈ 0.149 to 1.16 µM). Take `COc1c(N2C[C@@H]3CCCN(CN4C(=O)C(=O)c5cc(F)ccc54)[C@@H]3C2)c(F)cc2c(=O)c(C(=O)O)cn(C3CC3)c12`: the minimal inhibitory concentration (MIC) in assay [2] and in assay [3] was 0.39 to 16 µg/mL (≈ 0.674 to 27.7 µM) in each case. As to `COc1c(N2C[C@@H]3CCCN(CCN4C(=O)/C(=N\NC(N)=S)c5cc(F)ccc54)[C@@H]3C2)c(F)cc2c(=O)c(C(=O)O)cn(C3CC3)c12`, the MIC in assay [2] and in assay [3] was 0.39 to 16 µg/mL (≈ 0.586 to 24 µM) in each case.

Compound `NC(=S)N/N=C1/C(=O)N(CCCN2CCN(c3cc4c(cc3F)c(=O)c(C(=O)O)cn4C3CC3)CC2)c2ccccc21` came in with an MIC in assay [1] of 0.1 to 64 µg/mL (≈ 0.169 to 108 µM). Regarding `CC[C@@H](CO)NCCN[C@@H](CC)CO` [ETHAMBUTOL], the MIC in assay [4] amounted to 1.88 µg/mL (≈ 9.2 µM).
